Patent US11148998B2, “Dimethyl-nonatetraenyl-trimethyl-cyclohexyl compounds and uses thereof” (The Regents of the University of Michigan, priority 2017, dated 2021)

Experiments:
[1] = test system: rhino mouse skin; assay: Rhino mouse topical treatment: skin histology (horn-filled utriculi, epidermal thickness, inflammation); format: in vivo; details: for Epidermal thickness / Utriculus number / skin structure in histology (dermal thickness, utriculi, necrosis, infiltration) / Inflammatory index / inflammatory response / inflammatory cell infiltrate in histological sections (in words): 21 days; for Inflammatory index: scored 0 to 4+
From the text: FIGS. 12A-C: Efficacy of retinoids at normalizing structure of rhino mouse skin after topical treatment for 21 days.
FIGS. 13A-C: Dose related effect of Example 2 on rhino mouse skin.
The rhinomouse model is an industry-standard pre-clinical model for evaluation of retinoids for anti-acne activity. The mice can be treated topically over a course of days with the desired compound (either formulated or in liquid solvent). During the course of treatment, the animals can be evaluated grossly for skin irritation. At the end of the treatment phase, the animals are euthanized. Skin from treated sites can be evaluated for efficacy—reduction in the number of horn-filled utriculi—and for histological evidence of inflammation.
(§1) As a control, Tretinoin-0.1% was used. […] This is a commonly-prescribed anti-acne medicine.
One day after the last treatment, animals were euthanized. The animals were injected with 7 ml 10% buffered formalin after euthanasia. 15 minutes later the treated area on the back of the mouse was removed and cut into 8 pieces. Every other piece was taken, so four pieces of skin were mounted in one cassette and fixed for histology. An extra piece of skin from a non-treated area was also evaluated.
Hematoxylin and eosin stained sections were evaluated microscopically for epidermal thickness with measurements made in the inter-follicular regions at 4 representative sites per tissue strip.
The number of horn-filled utriculi was determined by direct counting in the entire section of skin. Each of the four sections per biopsy was used for determining the number of utriculi. Section lengths were measured as a way to normalize findings. Typically, the section of skin varied from 16-20 mm.
Slides were examined microscopically and inflammation was scored on a 0 to 4+ basis. A score of zero indicated no inflammation while increasing collection of inflammatory cells was identified with increasing score. Slides were also evaluated to determine if inflammation was confined to the dermis or whether there was epidermal inflammation. Dermal inflammation was assessed to determine if inflammatory cells were scattered throughout the dermis or whether small abscesses were also present. Finally, the inflammatory lesions were evaluated to determine whether they consisted of primarily mononuclear cells, granulocytic cells or both. A similar scale has been used previously in the assessment of skin irritation.
At the end of the in-life portion of the study, mice were euthanized by CO2 overdose. Hematoxylin and eosin-stained histological sections from each mouse in the control, ATRA-treated and Compound 2-treated groups were evaluated with regard to the number of horn-filled utriculi, epidermal thickness, and inflammation. Briefly, the epidermis of control mice consisted of a thin epidermis with large numbers of horn-filled utriculi (98+10 per 20 mm of epidermal linear length). […] Both the ATRA-treated mouse (top right panel) the Compound 2 treated skin (bottom panel) show both much thickened […] and disappearance of utriculi. […] There were large numbers of inflammatory cells in the dermis. Microabscesses could be seen in places, and migration of inflammatory cells into the epidermis was also evident. The infiltrate consisted of both mononuclear cells and granulocytes. […] The three other experimental retinoids were also examined along with Compound 2. […] In FIG. 13 it can be seen that during the dosing period 0.1% of Compound 2 led to skin thickening, but incomplete resolution of the utricali, whereas at 0.3% the utricali were more fully resolved.

[2] = test system: rhino mouse skin; assay: Rhino mouse topical treatment: gross skin irritation (modified Draize scale); format: in vivo; details: for gross skin appearance / irritation: topical daily for 21 days, photographed Day 22, ATRA as 35 mg of 0.1% cream, Examples in DMSO
Experimental: FIGS. 10A-C: Lack of Dose-related skin irritation after 21 day topical treatment of rhino mice with 100 μL DMSO control (10A) and 100 μL DMSO containing Example 2 at 0.1 (10B) and 0.3% concentrations (10C).
FIG. 11. […] The cumulative irritation score is a modified version of the Draize irritation scale, and the animals were assessed daily by an assessor who was blinded to the treatment given each mouse.
Rhino mice (HRS\J hr^rhhr^rh)) were obtained from Jackson Laboratories. Animals were recent weanlings; at this stage in the life of the rhinomouse, the phenotype (i.e., skin with numerous horn-filled utriculi) is well expressed and continues to be for several weeks. Both males and females were included. Animals were divided into treatment groups. Once in the laboratory, the mice were kept in temperature- and humidity-controlled rooms. All procedures during the in-life portion of the study were carried out in facilities of the Unit for Laboratory Animal Medicine (ULAM) at the University of Michigan—which is an AAALAC-certified institution. All procedures were carried out with approval by the University of Michigan Institutional Animal Care and Use Committee (IACUC).
as §1
Animals were housed individually during the treatment phase of the study. During the treatment phase, animals were assessed daily for overall health, and for signs of skin irritation. The Draize scale was used to assess skin irritation. The Draize scale evaluates the parameters of erythema and edema. Each parameter was scored between 0 and 4+ with 0 indicating no difference from control mice and 4+ indicating maximum erythema or edema. In addition, animals were assessed for dryness/flaking/cracking (single score). The overall irritation score was a compilation of the three parameters in all mice from a treatment group. During the treatment phase, animals were weighed weekly.
FIG. 1 left provides a summation of the skin irritation response in the different treatment groups. In control mice, there was little evidence of skin irritation at any time throughout the study. […] The initial spike in irritation was followed by a dip and then secondary rise. This is consistent with what is typically seen with ATRA. […] Neither the control mouse nor the Compound 1 & 2 treated mice show visible signs of irritation in the skin. In contrast, skin from the ATRA-treated mouse is red, dry and flaky. Small cracks in the skin can be seen and there is significant edema.

[3] = topical, concentration not given

SMILES | Epidermal thickness ([1]; 0.1% topical) | Utriculus number ([1]; 0.1% topical) | skin structure in histology (dermal thickness, utriculi, necrosis, infiltration) ([1]; 0.1% topical) | Inflammatory index ([1]; 0.1% topical) | Epidermal thickness ([1]; 0.3% topical) | Utriculus number ([1]; 0.3% topical) | Inflammatory index ([1]; 0.3% topical) | inflammatory response / inflammatory cell infiltrate in histological sections (in words) [1, 3] | signs of serious skin irritation ([2]; 0.1% and 0.3% in DMSO, topical, 21 days) | gross skin appearance / irritation [2] | cumulative irritation score (modified Draize scale) ([2]; 0.1% topical daily for 21 days) | number of utriculi compared to control (in words) [1, 3]
CC1=C(/C=C/C(C)=C\C=C\C(C)=C\C(=O)N(C)CC(=O)c2ccccc2)C(C)(C)CCC1 [Example 2, (2E,4E 6Z,8E)-N,3,7-trimethyl—N-(2-oxo-2-phenylethyl)-9-(2,6,6-trimethylcyclohex-1-en-1-yl)nona-2,4,6,8-tetraenamide] | 45 ± 8 | 7 ± 5 per 20 mm of epidermal linear length | normalization of dermal thickness, but still many structural remnants of utriculi | 1.1 ± 0.6 | 44 ± 6 | 5 ± 3 per 20 mm of epidermal linear length | 0.9 ± 0.4 | little inflammatory cell infiltrate | did not show any signs of serious skin irritation at either dose | normal rhino mouse appearance | – | –
CC1=C(/C=C/C(C)=C/C=C/C(C)=C/C(=O)O)C(C)(C)CCC1 [ATRA, all-trans retinoic acid, reference compound] | 68 ± 17 | 2 ± 2 per 20 mm of epidermal linear length | overall dermal layer is considerably thicker, and the utriculi have gone, the dermal layer has large necrotic areas, and is heavily infiltrated with activated leukocytes and macrophages | – | – | – | – | intense inflammatory cell infiltrate | – | considerable skin irritation, along with excessive skin flaking | far more irritant | –
CC1=C(/C=C/C(C)=C\C=C\C(C)=C\C(=O)N(C)CC(=O)C(C)(C)C)C(C)(C)CCC1 [Example 1, (2E,4E 6Z,8E)-N-(3,3-dimethyl-2-oxobutyl)-N,3,7-trimethyl-9-(2,6,6-trimethylcyclohex-1-en-1-yl)nona-2,4,6,8-tetraenamide] | – | – | – | – | – | – | – | did not produce an inflammatory response | – | normal rhino mouse appearance | – | reduced the number of utriculi as compared to control
